Each structure is given as a SMILES string.

The target of assay [1] is BTK recombinant protein (Homo sapiens (Human), UniProt Q06187). As to the kind of experiment: Determination of biochemical BTK (Z'-LYTE kinase assay). From the text:
Example 2 Determination of Biochemical BTK
(§1) 1. Reagents and Materials
BTK recombinant protein: Invitrogen, Cat #PV3363;
Z′-LYTE® kinase test kit-tyrosine 1 peptide: Invitrogen, Cat #PV3190;
Z′-LYTE® biochemical assay employs a fluorescence resonance energy transfer (FRET)—based, coupled-enzyme format and is based on the differential sensitivity of phosphorylated and non-phosphorylated peptides to proteolytic cleavage. Both ends of the short peptide substrate are labeled with two fluorescent groups to form a FRET paired combination. In the primary reaction (the Kinase Reaction), the kinase transfers the γ-phosphate of ATP to a single […] residue on the short peptide substrate. In the secondary reaction (the development reaction), the non-phosphorylated short peptides were recognized and cleaved by a site-specific protease (the development reagent). Phosphorylated short peptides can resist such cleavage. Cleavage of short peptides can disrupt the donor (such as coumarin) and receptor fluorophores (fluorescein) on the short peptides, while the phosphorylated short peptides can maintain FRET. The calculation method of the ratio is as follows, and the ratio of the respective emission signals generated by the donor fluorophores emitted (after excitation at 400 nm) to the receptors is calculated. Emission signal ratio=emitted light by coumarin (445 nm)/emitted light by fluorescein (520 nm). If the FRET short peptide is phosphorylated (such as no kinase inhibitor), the emitted light ratio will remain in a lower level. If the FRET short peptide is non-phosphorylated (such as kinase inhibitor), the emitted light ratio will be in a higher level. In this way, the inhibitory effects of different compound inhibitors on BTK kinase activity would be distinguished.
The experiment were carried out according to the instructions of the Z′-LYTE® kinase test kit-tyrosine 1 peptide. Reagent preparation: 1.33× kinase buffer: 5× kinase buffer was diluted with water to 1.33× kinase buffer; an enzyme solution: the kinase was dissolved in 1.33× kinase buffer with the final working concentration being 3.32 nM; a short peptide solution: a short peptide stock solution (1 mM dissolved in DMSO) was dissolved in 1.33× kinase buffer with the final working concentration being 2 μM; Z′-LYTE Tyr01 phosphorylated short peptide solution, 0.6 μl of stock solution (1 mM dissolved in DMSO) was dissolved in 149.4 μl of 1.33× kinase buffer; an ATP solution: an ATP stock solution (10 mM aqueous solution) was dissolved in 1.33× kinase buffer with the final working concentration being 32 μM; a color-developing solution: color-developing solution B was dissolved in color-developing buffer with the final working concentration being 1× color-developing solution; 4× compound preparation: the compound was diluted in 3-fold gradient concentration to finally obtain 4% DMSO aqueous solution containing different concentrations of the compound, with the final working concentration being 3000, 1000, 333.33, 111.11, 37.04, 12.35, 4.12, 1.37 nM, 8 concentration points in total.
Specific steps of the experiment: In the experiment, there were three control groups, each with 8 replicate wells, which were C1 100% inhibition group (no ATP), C2 0% inhibition group (with ATP), and C3 100% phosphorylation group, respectively. 2.5 μl of serially diluted compound was added to each well of a 384-well plate, with double replicate wells, and 4% DMSO solution was added to wells C1, C2, and C3. After that, except for wells C3, 2.5 μl of BTK enzyme solution was added to each remaining well, which was left to stand at 4° C. for 30 minutes. After that, except for wells C3, 2.5 μl of short peptide solution was added to each well, and 5 μl of phosphorylated short peptide solution was added to each of wells C3. 2.5 μl of 1.33× kinase buffer was added to each of wells C1 and C3, and 2.5 μl of ATP solution was added to each of the remaining wells. […]

Assay [2] concerns the target phosphorylated BTK in Ramos cells (Homo sapiens (Human), UniProt Q06187). Briefly: Determination of phosphorylated BTK in Ramos cells (BTK phospho-Y223 HTRF). It counts as cell-based. As to conditions: anti-human IgM + hydrogen peroxide stimulation. How it is done: Determination of Phosphorylated BTK in Ramos Cells
as §1
Ramos cells: Ramos cells were purchased from American Standard Biological Collection Center ATCC Cell Bank, PRMI 1640 medium containing L-glutamine, 1.5 g/L of sodium bicarbonate, 2.383 g/L of HEPES solution, 0.11 g/L of sodium pyruvate and 4.5 g/L of glucose was used, added 10% fetal bovine serum FBS, and placed in a 5% CO2, 37° C. cell incubator for normal culture;
Phosphorylated BTK HTRF detection kit (BTK phospho-Y223 HTRF kit): Cisbio, Cat #63ADK017PEH;
Ramos cells were starved in PRMI 1640 medium with 1% FBS for 2 hours. The starved Ramos cells were diluted with Hank's balanced salt solution to 5.0×10^6 cells/ml, seeded in a 96-well plate with 20 μL/well (1.0×10^5 cells/well), and cultured in a 5% CO2, 37° C. cell incubator. After culturing for 1 hour, the test compound was diluted with Hank's balanced salt solution in 4-fold gradient to the corresponding concentrations, and then 5 μL/well of the diluted test compound with different concentrations (the final concentrations of the test compound were 3.0, 0.75, 0.188, 0.047, 0.012, 0.0029, 0.0007 and 0.00018 μM, and the final concentration of DMSO was 0.3%, double replicate wells) or 5 μL/well of control solution (1.5% DMSO, 8 replicate wells) were added to 20 μL/well of cell culture system, which incubated together for another hour, then 5 μL/well of a mixed solution of human immunoglobulin M (final concentration was 10 μg/mL) and hydrogen peroxide (final concentration was 3.3 mM) diluted with Hank's balanced salt solution was added to the treating wells for the test compound and the control treating wells for anti-human immunoglobulin M, and 5 μL/well of Hank's balanced salt solution was added to negative control treating wells. The plate was incubated in a 5% CO2, 37° C. cell incubator for 10 minutes.
10 μL/well of cell lysis buffer was added to each well of a 96-well plate, which was mixed well and lysed at room temperature for 30 minutes. 16 μL/well of lysis buffer was pipetted to a new 384 well plate, and then added 4 μL/well of phosphorylated BTK antibody, centrifuged (1000 rpm) for 1 minute, then shaken for 1 minute, further centrifuged (1000 rpm) for 1 minute, and finally placed in a constant temperature incubator overnight. Detection was performed on the next day.
The 384 well plate incubated overnight in the constant temperature incubator was taken out to detect the luminescence signal using the Envision microwell plate reader at the […]. The reading value at 665 nm/615 nm of each well multiplied by 104 was used as the signal value of each well.
The average signal value of the wells supplemented with the mixed solution of human immunoglobulin M (final concentration was 10 μg/mL) and hydrogen peroxide (final concentration was 3.3 mM) without the test compound was regarded as the high value, and the average signal value of the wells without immunoglobulin M stimulation and without the test compound was regarded as the low value. According to the signal value in each well, the inhibition ratio (%) of each concentration of compounds was calculated, and the 205 model in XL-Fit 5.3 software (ID Business Solutions Limited) was used to obtain an IC50 value.
The inhibition ratio is calculated as follows: inhibition ratio (%)=100%−{(treating well for the test compound−negative control treating well)/(control treating well for anti-human immunoglobulin M−negative control treating well)}×100%, wherein,
Treating well for the test compound: represents the signal value of Ramos cells treated with anti-human immunoglobulin M, hydrogen peroxide and the test compound.
Control treating well for anti-human immunoglobulin M: represents the signal value of Ramos cells treated with anti-human immunoglobulin M, hydrogen peroxide but without the test compound. […]
(TR-FRET usually uses a lanthanide donor and a delayed reading to cut background.)

Sequence of BTK recombinant protein (Q06187 whole entry): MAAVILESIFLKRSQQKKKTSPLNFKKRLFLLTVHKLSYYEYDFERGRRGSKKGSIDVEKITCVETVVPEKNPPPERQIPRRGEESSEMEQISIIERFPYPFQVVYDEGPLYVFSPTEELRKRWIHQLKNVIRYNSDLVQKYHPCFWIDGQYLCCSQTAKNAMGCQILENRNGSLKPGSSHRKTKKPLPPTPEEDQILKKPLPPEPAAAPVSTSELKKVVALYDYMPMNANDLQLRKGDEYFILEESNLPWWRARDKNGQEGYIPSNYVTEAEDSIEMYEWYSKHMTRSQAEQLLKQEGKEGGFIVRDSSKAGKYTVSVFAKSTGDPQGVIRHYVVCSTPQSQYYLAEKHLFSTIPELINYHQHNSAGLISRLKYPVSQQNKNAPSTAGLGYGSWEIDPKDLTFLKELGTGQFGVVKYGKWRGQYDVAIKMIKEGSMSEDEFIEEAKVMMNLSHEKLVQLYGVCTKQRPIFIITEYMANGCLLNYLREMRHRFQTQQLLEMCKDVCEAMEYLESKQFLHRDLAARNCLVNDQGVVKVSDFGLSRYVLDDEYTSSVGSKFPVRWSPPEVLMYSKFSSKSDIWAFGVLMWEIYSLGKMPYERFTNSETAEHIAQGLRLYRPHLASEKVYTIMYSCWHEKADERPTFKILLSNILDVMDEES
Sequence of phosphorylated BTK in Ramos cells (Q06187 whole entry): as above

As for `CC(C)n1cc(Nc2cc(-c3ccnc(-n4ccn5c6c(cc5c4=O)CC(C)(C)C6)c3CO)cn(C)c2=O)nn1` [Compound 6], the IC50 in assay [1] and in assay [2] was 0.002 µM each time.
As to `CC(C)n1cc(Nc2cc(-c3ccnc(-n4ccn5c6c(cc5c4=O)CC(C)(C)C6)c3CO)nn(C)c2=O)nn1` [Compound 7], the IC50 (commonly the concentration that gives 50% inhibition) was less than 0.001 µM in assay [1] and 0.003 µM in assay [2].
With `C[C@H]1COCCN1c1ccc(Nc2cc(-c3ccnc(-n4ccn5c6c(cc5c4=O)CC(C)(C)C6)c3CO)cn(C)c2=O)nc1` [Compound 10], the results for the IC50 in assay [1] and in assay [2] were 0.018 µM and 0.01 µM, respectively.
For `Cc1c(-c2ccnc(-n3ccn4c5c(cc4c3=O)CC(C)(C)C5)c2CO)cc(Nc2ccc(N3CCN(C4COC4)C[C@@H]3C)cn2)c(=O)n1C` [Compound 11], in that order: 0.106 µM and 0.155 µM.
Turning to `Cc1c(-c2cc(Nc3ccc(N4CCN(C5COC5)C[C@@H]4C)cn3)c(=O)n(C)c2)ccnc1-n1ccn2c3c(cc2c1=O)CC(C)(C)C3` [Compound 12], the IC50 was determined as 0.23 µM in assay [1] and 0.013 µM in assay [2].
With `CCn1nc(-c2ccnc(-n3ccn4c5c(cc4c3=O)CC(C)(C)C5)c2CO)cc(Nc2ccc(N3CCN(C4COC4)C[C@@H]3C)cn2)c1=O` [Compound 14], the IC50 in assay [1] was 0.051 µM; in assay [2] it was 0.014 µM.
For `CN1CCn2nc(Nc3cc(-c4ccnc(-n5ccn6c7c(cc6c5=O)CC(C)(C)C7)c4CO)cn(C)c3=O)cc2C1=O` [Compound 15], in that order: 0.017 µM and 0.012 µM.
Taken in the same sequence, the figures for `CC(C)n1cc(Nc2cc(-c3ccnc(-n4ccn5c6c(cc5c4=O)CC(C)(C)C6)c3CO)cn3ncnc23)nn1` [Compound 18] were 0.004 µM and 0.004 µM.
Take `Cn1cc(Nc2cc(-c3ccnc(-n4ccn5c6c(cc5c4=O)CC(C)(C)C6)c3CO)nn(C)c2=O)nn1` [Compound 29]: the IC50 in assay [1] came to 0.008 µM; in assay [2] it was 0.03 µM.
For `Cn1cc(-c2ccnc(-n3ccn4c5c(cc4c3=O)CC(C)(C)C5)c2CO)cc(Nc2cn(CC(F)(F)F)nn2)c1=O` [Compound 30], the IC50 in assay [1] was determined as 0.009 µM; in assay [2], 0.008 µM.
`Cn1nc(-c2ccnc(-n3ccn4c5c(cc4c3=O)CC(C)(C)C5)c2CO)cc(Nc2cn(CCF)nn2)c1=O` [Compound 32]: the values for the IC50 in assay [1] and in assay [2] were 0.017 µM and 0.03 µM, respectively.
Turning to `Cn1nc(-c2ccnc(-n3ccn4c5c(cc4c3=O)CC(C)(C)C5)c2CO)cc(Nc2cn(CC(F)(F)F)nn2)c1=O` [Compound 33], the IC50 in assay [1] came out at 0.025 µM; in assay [2], 0.026 µM.
Consider `COC1CN(c2ccc(Nc3cc(-c4ccnc(-n5ccn6c7c(cc6c5=O)CC(C)(C)C7)c4CO)cn(C)c3=O)nc2)C1` [Compound 35], for which the IC50 in assay [1] was determined as 0.017 µM; in assay [2], 0.006 µM.
As for `Cn1cc(-c2ccnc(-n3ccn4c5c(cc4c3=O)CC(C)(C)C5)c2CO)cc(Nc2ccc(C3=CCN(C4COC4)CC3)cn2)c1=O` [Compound 36], the results for the IC50 in assay [1] and in assay [2] were 0.031 µM and 0.012 µM, respectively.
In the case of `Cn1cc(-c2ccnc(-n3ccn4c5c(cc4c3=O)CC(C)(C)C5)c2CO)cc(Nc2ccc(-c3ccc(C4COC4)cc3)cn2)c1=O` [Compound 37], the figures for the IC50 in assay [1] and in assay [2] were 0.132 µM and 0.011 µM, respectively.
For `[2H]C([2H])([2H])n1cc(-c2ccnc(-n3ccn4c5c(cc4c3=O)CC(C)(C)C5)c2CO)cc(Nc2ccc(N3CCN(C4COC4)C[C@@H]3C)cn2)c1=O` [Compound 39], the figures for the IC50 in assay [1] and in assay [2] were 0.024 µM and 0.003 µM, respectively.
For the molecule `CC(C)Nc1cc(-c2ccnc(-n3ccn4c5c(cc4c3=O)CC(C)(C)C5)c2CO)cn(C)c1=O` [Compound 40], the IC50 in assay [1] and in assay [2] was greater than 3 µM throughout.
With `CN(c1ccc(Nc2cc(-c3ccnc(-n4ccn5c6c(cc5c4=O)CC(C)(C)C6)c3CO)cn(C)c2=O)nc1)C1COC1` [Compound 41], the IC50 in assay [1] was 0.012 µM; in assay [2], 0.002 µM.
As to `Cn1cc(-c2ccnc(-n3ccn4c5c(cc4c3=O)CC(C)(C)C5)c2CO)cc(Nc2ccc(NC3CCCOC3)cn2)c1=O` (stereo not drawn) [Compound 45], the IC50 in assay [1] was found to be 0.011 µM; in assay [2], 0.005 µM.
As to `Cn1cc(-c2ccnc(-n3ccn4c5c(cc4c3=O)CC(C)(C)C5)c2CO)cc(Nc2ccc(N[C@@H]3CC[C@@H](CO)OC3)cn2)c1=O` [Compound 46], the figures for the IC50 in assay [1] and in assay [2] were 0.008 µM and 0.005 µM, respectively.
With `Cn1cc(-c2ccnc(-n3ccn4c5c(cc4c3=O)CC(C)(C)C5)c2CO)cc(Nc2ccc(C(=O)N3CCOCC3)cn2)c1=O` [Compound 47], the IC50 in assay [1] and in assay [2] was 0.003 µM throughout.
Take `COCCN(c1ccc(Nc2cc(-c3ccnc(-n4ccn5c6c(cc5c4=O)CC(C)(C)C6)c3CO)cn(C)c2=O)nc1)C(C)C` [Compound 51]: the results for the IC50 in assay [1] and in assay [2] were 0.01 µM and 0.008 µM, respectively.
For `C[C@H]1CN(C2COC2)CCN1c1ccc(Nc2cc(-c3ccnc(-n4ccn5c(cc6cccc(F)c65)c4=O)c3CO)cn(C)c2=O)nc1` [Compound 52], the half-maximal inhibitory concentration (IC50) in assay [1] and in assay [2] was 0.018 µM in each case.
As to `C[C@H]1CN(C2COC2)CCN1c1ccc(Nc2cc(-c3ccnc(-n4ccn5c(cc6c(F)cccc65)c4=O)c3CO)cn(C)c2=O)nc1` [Compound 53], the IC50 in assay [1] came to 0.033 µM; in assay [2] it was 0.025 µM.

The values above are taken from US11478474B2, “2-(3′-(hydroxymethyl)-1-methyl-5-((5-(2-methyl-4-(oxetan-3-yl)piperazin-1-yl)pyridin-2-yl)amino)-6-oxo-1,6-dihydro-[3,4′-bipyridin]-2′-yl)-7,7-dimethyl-7,8-dihydro-2H-cyclopenta[4,5]pyrrolo[1,2-a]pyrazin-1(6H)-one as a BTK inhibitor” (HUTCHISON MEDIPHARMA LIMITED, priority 2020, dated 2022).
